Source: US20240025891A1 (Celgene Corporation, priority 2020, published 2024)
pIC50: −log10 of the molar value.

Tested on: Onchocerca gutturosa adult male worms
Assay: Onchocerciasis in vitro screening model Onchocerca gutturosa (worm motility score and MTT/formazan colorimetry)
Settings: Onchocerca gutturosa, read-out: O. gutt Act class
Method: Onchocerciasis: In Vitro Screening Model Onchocerca gutturosa
Parasite and cell cultures. Onchocerca gutturosa adult male worms were obtained by dissection from the nuchal ligament connective tissues of naturally infected cattle, from Gambia, W Africa.
The worms were maintained for at least 24 h in culture before use in Eagles Minimum Essential Medium with Earl's Salts (Gibco, UK)+10% heat inactivated new born calf serum (Gibco, UK)+antibiotic cover of 200 units/ml penicillin, 200 μg/ml streptomycin and 0.5 μg/ml amphotericin B (Sigma, UK). Only normally active specimens were used in the test. All cultures and assays were conducted at 37° C. under an atmosphere of 5% CO2 in air.
Drug sensitivity assays. Compound stock solutions were prepared in 100% DMSO unless otherwise indicated and diluted into the medium. Any unused compound stocks were stored at −20° C. Assays were performed in sterile 24-well (2 ml) plates (Falcon, UK).
Worms were then transferred individually to each well of the plate using fine forceps. Worm viability was assessed using 2 parameters: • The measurement of mean worm motility scores on a scale of 0 (immotile) to 10 (maximum) every 24 h, terminating at 120 h, using an Olympus inverted microscope. • The biochemical evaluation of worm viability using MTT/formazan colorimetry. The MTT assay was carried out after the last motility reading (120 h). Single intact worms were placed in each well of a 48-well plate (Falcon, UK) containing 0.5 ml of a solution consisting of 0.5 mg/ml MTT (Sigma UK) in phosphate buffered saline, and then incubated for 30 min at 37° C. The worms were removed, blotted carefully, and individually transferred to separate wells of a 96-well microtiter plate, each containing 200 μl of DMSO to solubilize the formazan. After 1 h the plate was gently agitated to disperse the color evenly and the absorbance value (optical density) of the resulting formazan solution was determined at 490 nm using a multi-well scanning spectrophotometer (Elisa-reader, Dynatech, UK). Inhibition of formazan formation was correlated with worm damage or death.
Primary screen. New compounds were usually tested at 1.25×10^−5 M. Also expressed in μg/ml.
Secondary screen. […] Serial 1 in 4 drug dilutions was carried out to find activity endpoint and EC50 values for motility reduction and inhibition of formazan formation were produced. EC50 values were determined using Excel or Origin V7 scientific graphing and data analysis software.

SMILES	pIC50
O=C(NC1CC1)c1ccnc(Nc2nc(-c3ccccn3)cs2)c1 [Example 170, N-cyclopropyl-2-(4-(pyridin-2-yl)thiazol-2-ylamino) isonicotinamide]	> 6.70
CNC(=O)c1ccc(-c2ccnc(Nc3nc(-c4ccccn4)cs3)c2)cc1 [Example 171, N-methyl-4-(2-(4-(pyridin-2-yl)thiazol-2-ylamino)pyridin-4-yl)benzamide]	> 6.70
CCCc1ccnc(Nc2nc(-c3ccccn3)cs2)c1 [Example 172, N-(4-propylpyridin-2-yl)-4-(pyridin-2-yl)thiazol-2-amine]	6.30 to 6.70
c1ccc(-c2csc(Nc3cc(-c4cnccn4)ccn3)n2)nc1 [Example 173, N-(4-(pyrazin-2-yl)pyridin-2-yl)-4-(pyridin-2-yl)thiazol-2-amine]	> 6.70
c1ccc(-c2csc(Nc3cc(-c4ncccn4)ccn3)n2)nc1 [Example 174, 4-(pyridin-2-yl)-N-(4-(pyrimidin-2-yl)pyridin-2-yl)thiazol-2-amine]	6.30 to 6.70
c1ccc(-c2csc(Nc3cc(-c4cccc5ccccc45)ccn3)n2)nc1 [Example 175, N-(4-(naphthalen-1-yl)pyridin-2-yl)-4-(pyridin-2-yl)thiazol-2-amine]	> 6.70
c1ccc(-c2csc(Nc3cc(C4CC4)ccn3)n2)nc1 [Example 176, N-(4-cyclopropyl-pyridin-2-yl)-4-(pyridin-2-yl)thiazol-2-amine]	> 6.70
O=C(NCC1CC1)c1ccnc(Nc2nc(-c3ccccn3)cs2)c1 [Example 177, N-(cyclopropyl-methyl)-2-(4-(pyridin-2-yl)thiazol-2-ylamino) isonicotinamide]	5.30 to 6.30
CCNC(=O)c1ccnc(Nc2nc(-c3ccccn3)cs2)c1 [Example 178, N-ethyl-2-(4-(pyridin-2-yl)thiazol-2-ylamino) isonicotinamide]	> 6.70
O=C(NC1CC(F)(F)C1)c1ccnc(Nc2ncc(-c3ccccn3)s2)c1 [Example 179, N-(3,3-difluoro-cyclobutyl)-2-(5-(pyridin-2-yl)thiazol-2-ylamino) isonicotinamide]	> 6.70
Cc1ccnc(Nc2nc(-c3ccccn3)c(CCOC3CCC3)s2)c1 [Example 180, 5-(2-cyclobutoxy-ethyl)-N-(4-methylpyridin-2-yl)-4-(pyridin-2-yl)thiazol-2-amine]	> 6.70
Cc1ccnc(Nc2nc(-c3ccccn3)c(C(C)(C)C)s2)c1 [Example 181, 5-tert-butyl-N-(4-methylpyridin-2-yl)-4-(pyridin-2-yl)thiazol-2-amine]	6.30 to 6.70
Cc1ccnc(Nc2nc(-c3ccccn3)c(COCC3CCC3)s2)c1 [Example 182, 5-((cyclobutyl-methoxy)methyl)-N-(4-methylpyridin-2-yl)-4-(pyridin-2-yl)thiazol-2-amine]	6.30 to 6.70
Cc1ccnc(Nc2nc(-c3ccccn3)c(CN3CCC3)s2)c1 [Example 183, 5-(azetidin-1-ylmethyl)-N-(4-methylpyridin-2-yl)-4-(pyridin-2-yl)thiazol-2-amine]	> 6.70
CCc1sc(Nc2cc(C)ccn2)nc1-c1ccccn1 [Example 184, 5-ethyl-N-(4-methylpyridin-2-yl)-4-(pyridin-2-yl)thiazol-2-amine]	> 6.70
Cc1ccnc(Nc2nc(-c3ccccn3)c(CN3CCCC3)s2)c1 [Example 185, N-(4-methylpyridin-2-yl)-4-(pyridin-2-yl)-5-(pyrrolidin-1-ylmethyl) thiazol-2-amine]	6.30 to 6.70
Cc1sc(Nc2cc(C(F)(F)F)c(C(C)C)cn2)nc1-c1ccccn1 [Example 186, N-(5-isopropyl-4-(trifluoromethyl)pyridin-2-yl)-5-methyl-4-(pyridin-2-yl)thiazol-2-amine]	> 6.70
C[C@@H]1CN(C(=O)c2sc(Nc3cc(C(F)(F)F)ccn3)nc2-c2ccccn2)C[C@H](C)O1 [Example 187, ((2S,6R)-2,6-dimethyl-morpholino) (4-(pyridin-2-yl)-2-(4-(trifluoromethyl)pyridin-2-ylamino)thiazol-5-yl)methanone]	> 6.70
C[C@@H]1CN(Cc2sc(Nc3cc(C(=O)NCC(F)(F)F)ccn3)nc2-c2ccccn2)C[C@H](C)O1 [Example 188, 2-(5-(((2S,6R)-2,6-dimethyl-morpholino)methyl)-4-(pyridin-2-yl)thiazol-2-ylamino)-N-(2,2,2-trifluoroethyl) isonicotinamide]	> 6.70
N#Cc1sc(Nc2cc(C(F)(F)F)ccn2)nc1-c1ccccn1 [Example 189, 4-(pyridin-2-yl)-2-(4-(trifluoromethyl)pyridin-2-ylamino) thiazole-5-carbonitrile]	5.30 to 6.30
O=C(c1sc(Nc2cc(C(F)(F)F)ccn2)nc1-c1ccccn1)N1CCC2(CC1)OCCO2 [Example 190, (4-(pyridin-2-yl)-2-(4-(trifluoromethyl)pyridin-2-ylamino)thiazol-5-yl)(1,4-dioxa-8-azaspiro[4.5]decan-8-yl)methanone]	5.30 to 6.30
CN1CCN(C(=O)c2sc(Nc3cc(C(F)(F)F)ccn3)nc2-c2ccccn2)CC1 [Example 191, (4-methylpiperazin-1-yl)(4-(pyridin-2-yl)-2-(4-(trifluoromethyl)pyridin-2-ylamino)thiazol-5-yl)methanone]	5.30 to 6.30
O=C(c1sc(Nc2cc(C(F)(F)F)ccn2)nc1-c1ccccn1)N1CCN2CCCC2C1 (stereo not drawn) [Example 192, (hexahydro-pyrrolo [1,2-a]pyrazin-2(1H)-yl)(4-(pyridin-2-yl)-2-(4-(trifluoromethyl)pyridin-2-ylamino)thiazol-5-yl)methanone]	6.30 to 6.70
OCc1sc(Nc2cc(F)ccn2)nc1-c1ccccn1 [Example 193, (2-(4-fluoropyridin-2-ylamino)-4-(pyridin-2-yl)thiazol-5-yl)methanol]	> 6.70
CCc1sc(Nc2cccc(C(F)(F)F)n2)nc1-c1ccccn1 [Example 194, 5-ethyl-4-(pyridin-2-yl)-N-(6-(trifluoromethyl)pyridin-2-yl)thiazol-2-amine]	5.30 to 6.30
CN(C)Cc1sc(Nc2cc(C(F)(F)F)ccn2)nc1-c1ccccn1 [Example 195, 5-((dimethylamino)methyl)-4-(pyridin-2-yl) N-(4-(trifluoromethyl)pyridin-2-yl)thiazol-2-amine]	6.30 to 6.70
C[C@@H]1CN(Cc2sc(Nc3cc(C(F)(F)F)ccn3)nc2-c2ccccn2)C[C@H](C)N1 [Example 196, 5-(((3R,5S)-3,5-dimethyl-piperazin-1-yl)methyl)-4-(pyridin-2-yl)-N-(4-(trifluoromethyl)pyridin-2-yl)thiazol-2-amine]	> 6.70
FC(F)(F)c1ccnc(Nc2nc(-c3ccccn3)c(CN3CCCC3)s2)c1 [Example 197, 4-(pyridin-2-yl)-5-(pyrrolidin-1-ylmethyl)-N-(4-(trifluoromethyl)pyridin-2-yl)thiazol-2-amine]	5.30 to 6.30
Cc1sc(Nc2cc(C(=O)NCC(F)(F)F)ccn2)nc1-c1ccccn1 [Example 198, 2-(5-methyl-4-(pyridin-2-yl)thiazol-2-ylamino)-N-(2,2,2-trifluoroethyl) isonicotinamide]	> 6.70
O=C(c1sc(Nc2cc(C(F)(F)F)ccn2)nc1-c1ccccn1)N1CCOCC1 [Example 199, morpholino(4-(pyridin-2-yl)-2-(4-(trifluoromethyl)pyridin-2-ylamino)thiazol-5-yl)methanone]	5.30 to 6.30
